SMILES strings stand for the structures. pKd: −log10 of the molar value. The source made the active and inactive calls. For most assays here, no stated cut-off is given here; in the data, actives have a measured Kd and inactives only a lower limit. A value given as a limit tells only on which side of the number the result lay.

For assay [1], the target named is T1, Ferrochelatase, mitochondrial (Homo sapiens, UniProt P22830).
T1 sequence (P22830 whole entry): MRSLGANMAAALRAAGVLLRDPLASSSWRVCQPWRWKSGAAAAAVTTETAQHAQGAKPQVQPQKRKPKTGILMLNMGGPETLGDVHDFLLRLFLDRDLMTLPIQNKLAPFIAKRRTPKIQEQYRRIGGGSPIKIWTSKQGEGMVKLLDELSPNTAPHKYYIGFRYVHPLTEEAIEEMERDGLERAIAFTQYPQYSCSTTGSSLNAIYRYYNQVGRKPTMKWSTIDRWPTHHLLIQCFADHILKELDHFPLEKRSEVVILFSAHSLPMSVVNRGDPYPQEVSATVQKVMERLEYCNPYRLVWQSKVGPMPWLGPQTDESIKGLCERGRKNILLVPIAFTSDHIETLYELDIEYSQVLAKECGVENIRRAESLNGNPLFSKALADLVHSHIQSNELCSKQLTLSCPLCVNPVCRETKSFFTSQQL

In assay [2] the target is Tyrosine-protein kinase ABL2 (Homo sapiens, UniProt P42684).
Assay [3] has as its target T2, Dual specificity mitogen-activated protein kinase kinase 6 (Homo sapiens, UniProt P52564).
T2 sequence (P52564 whole entry): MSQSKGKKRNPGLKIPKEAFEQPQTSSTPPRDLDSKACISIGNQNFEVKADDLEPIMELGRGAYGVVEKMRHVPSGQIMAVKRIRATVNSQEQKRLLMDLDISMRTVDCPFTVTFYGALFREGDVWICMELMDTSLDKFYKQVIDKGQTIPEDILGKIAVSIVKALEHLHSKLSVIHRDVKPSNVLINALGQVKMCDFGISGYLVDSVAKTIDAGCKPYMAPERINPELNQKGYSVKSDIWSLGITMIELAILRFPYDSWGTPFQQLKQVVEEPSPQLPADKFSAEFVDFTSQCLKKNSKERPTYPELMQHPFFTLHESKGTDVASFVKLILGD

Another assay has as its target T3, Ephrin type-B receptor 4 (Homo sapiens, UniProt P54760).
T3 sequence (P54760 whole entry): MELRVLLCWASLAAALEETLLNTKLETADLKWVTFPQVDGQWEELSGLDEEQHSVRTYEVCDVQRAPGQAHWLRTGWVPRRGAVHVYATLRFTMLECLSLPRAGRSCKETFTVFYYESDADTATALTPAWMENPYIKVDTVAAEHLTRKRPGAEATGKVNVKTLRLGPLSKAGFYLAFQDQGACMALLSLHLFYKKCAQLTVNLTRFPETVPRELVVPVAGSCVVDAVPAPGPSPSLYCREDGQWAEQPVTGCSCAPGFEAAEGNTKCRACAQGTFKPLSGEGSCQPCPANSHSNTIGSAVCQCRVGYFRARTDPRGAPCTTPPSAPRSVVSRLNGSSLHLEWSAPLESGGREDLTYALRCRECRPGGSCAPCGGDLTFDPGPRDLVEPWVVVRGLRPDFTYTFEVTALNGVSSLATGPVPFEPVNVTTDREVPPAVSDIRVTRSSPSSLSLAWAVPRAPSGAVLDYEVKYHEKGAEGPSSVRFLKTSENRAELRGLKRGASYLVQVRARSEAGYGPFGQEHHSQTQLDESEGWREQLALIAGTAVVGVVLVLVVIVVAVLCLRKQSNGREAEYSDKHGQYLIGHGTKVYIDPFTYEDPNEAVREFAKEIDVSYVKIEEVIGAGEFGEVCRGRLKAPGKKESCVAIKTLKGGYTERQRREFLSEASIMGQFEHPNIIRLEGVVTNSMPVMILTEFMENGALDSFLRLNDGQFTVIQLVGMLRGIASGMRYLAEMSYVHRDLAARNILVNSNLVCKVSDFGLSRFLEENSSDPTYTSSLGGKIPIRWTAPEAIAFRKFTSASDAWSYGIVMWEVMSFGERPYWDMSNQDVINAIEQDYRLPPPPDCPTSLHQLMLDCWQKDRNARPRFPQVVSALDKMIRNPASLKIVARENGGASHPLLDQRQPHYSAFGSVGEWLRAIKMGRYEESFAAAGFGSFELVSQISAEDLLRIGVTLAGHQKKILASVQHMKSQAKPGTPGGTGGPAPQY

For assay [4], the target named is DNA topoisomerase 2-alpha (Homo sapiens, UniProt P11388).
Assay [5] has as its target T4, Discoidin domain-containing receptor 2 (Homo sapiens, UniProt Q16832).
T4 sequence (Q16832 whole entry): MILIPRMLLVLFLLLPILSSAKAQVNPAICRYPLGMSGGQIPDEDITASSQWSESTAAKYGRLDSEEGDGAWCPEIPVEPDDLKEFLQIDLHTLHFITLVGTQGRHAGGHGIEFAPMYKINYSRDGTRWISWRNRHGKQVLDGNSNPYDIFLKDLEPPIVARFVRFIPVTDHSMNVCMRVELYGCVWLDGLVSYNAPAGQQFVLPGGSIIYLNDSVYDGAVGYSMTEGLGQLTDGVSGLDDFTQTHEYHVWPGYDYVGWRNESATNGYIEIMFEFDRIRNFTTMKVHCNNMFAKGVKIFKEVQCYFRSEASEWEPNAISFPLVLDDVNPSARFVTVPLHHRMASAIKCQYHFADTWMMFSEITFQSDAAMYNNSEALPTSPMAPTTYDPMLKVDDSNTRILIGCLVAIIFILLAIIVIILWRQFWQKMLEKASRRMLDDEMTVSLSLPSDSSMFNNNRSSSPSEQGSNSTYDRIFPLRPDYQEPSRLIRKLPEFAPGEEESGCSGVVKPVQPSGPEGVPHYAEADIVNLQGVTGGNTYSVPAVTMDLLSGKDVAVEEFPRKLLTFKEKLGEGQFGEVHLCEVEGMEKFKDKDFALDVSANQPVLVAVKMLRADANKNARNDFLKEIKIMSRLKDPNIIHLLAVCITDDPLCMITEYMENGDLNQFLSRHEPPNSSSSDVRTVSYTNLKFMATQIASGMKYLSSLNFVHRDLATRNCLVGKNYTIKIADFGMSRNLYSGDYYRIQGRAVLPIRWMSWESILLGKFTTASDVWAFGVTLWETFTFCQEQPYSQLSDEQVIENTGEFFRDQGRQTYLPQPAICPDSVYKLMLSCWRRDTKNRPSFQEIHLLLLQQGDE

Assay [6] concerns the target Receptor-interacting serine/threonine-protein kinase 3 (Homo sapiens, UniProt Q9Y572).
For assay [7], the target named is Serine/threonine-protein kinase/endoribonuclease IRE2 (Homo sapiens, UniProt Q76MJ5).
In assay [8] the target is Protein kinase C delta type (Homo sapiens, UniProt Q05655).
The target of assay [9] is Mitogen-activated protein kinase 8 (Homo sapiens, UniProt P45983).
Mitogen-activated protein kinase 8, sequence (P45983 whole entry): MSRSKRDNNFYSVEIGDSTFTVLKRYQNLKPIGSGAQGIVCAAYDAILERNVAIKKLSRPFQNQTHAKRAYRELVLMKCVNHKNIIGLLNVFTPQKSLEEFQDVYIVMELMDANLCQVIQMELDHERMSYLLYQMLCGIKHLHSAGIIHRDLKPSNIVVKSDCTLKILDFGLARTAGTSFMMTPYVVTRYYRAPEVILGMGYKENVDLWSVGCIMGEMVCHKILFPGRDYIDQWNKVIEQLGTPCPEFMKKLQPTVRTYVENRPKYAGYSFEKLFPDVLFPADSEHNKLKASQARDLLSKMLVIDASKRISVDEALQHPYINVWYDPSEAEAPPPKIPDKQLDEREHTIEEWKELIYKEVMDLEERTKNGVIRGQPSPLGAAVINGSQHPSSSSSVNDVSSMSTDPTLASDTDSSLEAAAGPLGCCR

Tyrosine-protein kinase ABL2, sequence (P42684 whole entry): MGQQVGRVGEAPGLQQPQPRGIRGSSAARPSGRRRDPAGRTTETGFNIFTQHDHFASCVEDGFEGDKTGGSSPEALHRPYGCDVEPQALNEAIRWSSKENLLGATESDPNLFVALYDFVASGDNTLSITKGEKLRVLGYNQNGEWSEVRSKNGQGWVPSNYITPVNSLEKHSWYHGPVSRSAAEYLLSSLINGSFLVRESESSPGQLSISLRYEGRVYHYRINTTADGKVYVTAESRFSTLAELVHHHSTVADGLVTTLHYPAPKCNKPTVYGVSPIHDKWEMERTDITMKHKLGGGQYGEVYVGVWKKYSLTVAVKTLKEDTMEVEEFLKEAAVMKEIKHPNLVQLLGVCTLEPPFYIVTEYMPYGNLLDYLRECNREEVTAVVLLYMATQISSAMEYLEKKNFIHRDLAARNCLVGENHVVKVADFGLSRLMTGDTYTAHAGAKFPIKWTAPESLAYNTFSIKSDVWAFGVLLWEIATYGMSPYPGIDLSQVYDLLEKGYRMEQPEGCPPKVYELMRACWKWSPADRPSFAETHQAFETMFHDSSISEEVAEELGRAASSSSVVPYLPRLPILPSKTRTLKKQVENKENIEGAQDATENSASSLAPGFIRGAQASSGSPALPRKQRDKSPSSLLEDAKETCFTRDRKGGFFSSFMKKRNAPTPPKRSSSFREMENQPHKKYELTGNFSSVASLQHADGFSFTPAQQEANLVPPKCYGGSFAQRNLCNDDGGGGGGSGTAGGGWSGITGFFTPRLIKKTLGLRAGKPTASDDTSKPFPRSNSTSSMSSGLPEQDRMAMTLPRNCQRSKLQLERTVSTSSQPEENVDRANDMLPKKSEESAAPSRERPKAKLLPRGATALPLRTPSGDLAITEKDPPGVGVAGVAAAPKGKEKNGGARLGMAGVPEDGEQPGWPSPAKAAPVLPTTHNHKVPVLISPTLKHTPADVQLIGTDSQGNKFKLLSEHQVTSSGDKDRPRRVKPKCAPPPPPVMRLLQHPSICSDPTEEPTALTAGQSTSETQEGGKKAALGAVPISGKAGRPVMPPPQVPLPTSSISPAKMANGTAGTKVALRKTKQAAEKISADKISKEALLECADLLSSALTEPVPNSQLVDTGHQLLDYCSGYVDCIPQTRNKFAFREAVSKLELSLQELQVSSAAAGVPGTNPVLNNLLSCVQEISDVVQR
DNA topoisomerase 2-alpha, sequence (P11388 whole entry, the tested form may be a part): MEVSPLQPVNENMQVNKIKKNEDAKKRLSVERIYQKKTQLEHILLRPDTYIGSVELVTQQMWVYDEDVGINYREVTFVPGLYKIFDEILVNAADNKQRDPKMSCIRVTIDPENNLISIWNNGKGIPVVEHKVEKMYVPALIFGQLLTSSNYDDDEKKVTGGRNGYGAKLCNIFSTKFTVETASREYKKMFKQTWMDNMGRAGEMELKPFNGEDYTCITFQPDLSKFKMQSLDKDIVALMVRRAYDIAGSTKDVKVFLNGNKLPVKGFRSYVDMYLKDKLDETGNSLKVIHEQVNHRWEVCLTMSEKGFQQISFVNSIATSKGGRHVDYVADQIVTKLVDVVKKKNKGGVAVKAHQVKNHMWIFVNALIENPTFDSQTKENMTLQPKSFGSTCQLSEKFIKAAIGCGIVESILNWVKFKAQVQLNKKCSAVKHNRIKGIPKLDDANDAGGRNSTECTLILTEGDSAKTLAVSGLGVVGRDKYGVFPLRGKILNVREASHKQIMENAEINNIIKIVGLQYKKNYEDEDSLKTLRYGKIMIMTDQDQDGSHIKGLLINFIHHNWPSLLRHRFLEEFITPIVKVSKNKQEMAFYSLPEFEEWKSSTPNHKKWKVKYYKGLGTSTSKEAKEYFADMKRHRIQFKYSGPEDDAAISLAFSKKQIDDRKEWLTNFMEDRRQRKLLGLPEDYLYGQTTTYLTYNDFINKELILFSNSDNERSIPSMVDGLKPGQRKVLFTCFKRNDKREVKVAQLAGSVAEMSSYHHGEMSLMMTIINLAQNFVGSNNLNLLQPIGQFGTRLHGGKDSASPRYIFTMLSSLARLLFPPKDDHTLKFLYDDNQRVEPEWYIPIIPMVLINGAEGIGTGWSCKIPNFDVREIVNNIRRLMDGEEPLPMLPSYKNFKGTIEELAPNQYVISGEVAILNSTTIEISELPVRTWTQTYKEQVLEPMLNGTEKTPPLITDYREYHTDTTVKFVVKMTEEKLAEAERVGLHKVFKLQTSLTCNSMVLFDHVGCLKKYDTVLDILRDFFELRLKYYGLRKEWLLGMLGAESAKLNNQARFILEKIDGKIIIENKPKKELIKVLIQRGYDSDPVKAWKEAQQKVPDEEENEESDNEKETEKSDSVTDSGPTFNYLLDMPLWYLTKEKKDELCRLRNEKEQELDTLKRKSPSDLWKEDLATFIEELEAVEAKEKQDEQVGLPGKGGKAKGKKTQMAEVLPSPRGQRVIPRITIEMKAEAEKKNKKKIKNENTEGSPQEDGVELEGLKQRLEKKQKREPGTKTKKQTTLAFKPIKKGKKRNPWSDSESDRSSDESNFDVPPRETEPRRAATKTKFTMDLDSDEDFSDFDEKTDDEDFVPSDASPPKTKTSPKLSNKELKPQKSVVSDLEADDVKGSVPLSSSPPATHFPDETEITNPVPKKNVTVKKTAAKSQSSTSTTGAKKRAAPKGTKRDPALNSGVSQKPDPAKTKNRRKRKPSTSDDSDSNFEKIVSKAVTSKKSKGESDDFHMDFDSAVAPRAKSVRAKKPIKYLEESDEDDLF
Serine/threonine-protein kinase/endoribonuclease IRE2, sequence (Q76MJ5 whole entry): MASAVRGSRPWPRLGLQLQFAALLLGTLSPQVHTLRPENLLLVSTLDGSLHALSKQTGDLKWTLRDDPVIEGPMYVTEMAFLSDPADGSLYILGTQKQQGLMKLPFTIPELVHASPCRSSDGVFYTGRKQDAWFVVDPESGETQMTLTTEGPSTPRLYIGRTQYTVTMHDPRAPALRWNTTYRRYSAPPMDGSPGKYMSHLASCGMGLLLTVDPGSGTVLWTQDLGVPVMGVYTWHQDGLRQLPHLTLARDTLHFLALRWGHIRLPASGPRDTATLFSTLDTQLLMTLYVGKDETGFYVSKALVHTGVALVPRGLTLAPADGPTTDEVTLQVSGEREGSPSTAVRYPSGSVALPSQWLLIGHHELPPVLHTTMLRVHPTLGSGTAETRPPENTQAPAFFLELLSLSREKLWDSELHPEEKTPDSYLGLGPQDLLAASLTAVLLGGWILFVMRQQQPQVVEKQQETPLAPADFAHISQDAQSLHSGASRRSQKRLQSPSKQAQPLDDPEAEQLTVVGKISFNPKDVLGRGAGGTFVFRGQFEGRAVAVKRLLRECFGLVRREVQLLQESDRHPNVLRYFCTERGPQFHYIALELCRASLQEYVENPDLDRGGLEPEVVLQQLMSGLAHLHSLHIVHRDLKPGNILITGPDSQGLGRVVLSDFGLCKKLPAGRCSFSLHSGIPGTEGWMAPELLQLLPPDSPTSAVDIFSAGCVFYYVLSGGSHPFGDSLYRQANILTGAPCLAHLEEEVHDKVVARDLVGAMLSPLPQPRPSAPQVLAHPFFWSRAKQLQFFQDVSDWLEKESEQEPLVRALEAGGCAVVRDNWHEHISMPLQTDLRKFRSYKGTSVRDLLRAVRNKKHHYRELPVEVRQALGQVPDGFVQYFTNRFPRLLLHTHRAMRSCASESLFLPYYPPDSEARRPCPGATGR
Receptor-interacting serine/threonine-protein kinase 3, sequence (Q9Y572 whole entry): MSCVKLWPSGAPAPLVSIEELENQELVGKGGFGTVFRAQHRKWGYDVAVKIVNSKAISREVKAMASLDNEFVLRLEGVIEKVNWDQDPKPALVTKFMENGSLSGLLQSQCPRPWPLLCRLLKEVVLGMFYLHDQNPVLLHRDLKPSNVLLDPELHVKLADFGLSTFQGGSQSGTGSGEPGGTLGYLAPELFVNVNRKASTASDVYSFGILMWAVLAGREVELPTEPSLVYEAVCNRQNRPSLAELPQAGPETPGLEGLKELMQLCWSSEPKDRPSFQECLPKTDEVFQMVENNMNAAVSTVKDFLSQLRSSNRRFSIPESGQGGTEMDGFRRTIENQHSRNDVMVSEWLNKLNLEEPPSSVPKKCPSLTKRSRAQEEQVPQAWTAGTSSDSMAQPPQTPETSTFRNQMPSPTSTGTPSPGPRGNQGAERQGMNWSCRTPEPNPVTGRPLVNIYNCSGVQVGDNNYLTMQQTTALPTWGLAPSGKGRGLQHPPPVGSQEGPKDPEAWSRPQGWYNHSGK

Usually Kd stands for the free concentration of one partner at which half of the binding sites on the other are occupied at equilibrium, for simple one-to-one binding. Consider `COc1cc(OC)c(/C=C/S(=O)(=O)Cc2ccc(OC)c(NCC(=O)O)c2)c(OC)c1` [RIGOSERTIB], for which the Kd in [1] is 5.58 µM (active); in [2] it was > 30 µM (inactive); in assay [3] it was > 30 µM (inactive); at Ephrin type-B receptor 4, > 30 µM (inactive); in assay [4], > 30 µM (inactive); in assay [5], > 30 µM (inactive). Also, the Kd in assay [6], in assay [7], in [8] and in assay [9] was > 30 µM (inactive) throughout.

For `CC[C@H](Nc1ncnc2[nH]cnc12)c1nc2cccc(F)c2c(=O)n1-c1ccccc1` [IDELALISIB], the Kd (in assay [1]; in [2]; in assay [3]; at Ephrin type-B receptor 4; in [4]; in assay [5]) was > 30 µM (inactive) in each case. In addition, the Kd in assay [6], in assay [7], in assay [8] and in assay [9] was > 30 µM (inactive) each time.

Turning to `C[C@@H](c1ccc2nccn2c1)n1nnc2ncc(-c3cnn(C)c3)nc21` [SAVOLITINIB], the Kd (in [1]; in assay [2]; in [3]; at Ephrin type-B receptor 4; in assay [4]; in [5]) was > 30 µM (inactive) each time. Besides, the Kd in assay [6], in assay [7], in [8] and in assay [9] was > 30 µM (inactive) throughout.

Consider `CN1N=C(N)c2cn([C@@H]3O[C@H](COP(=O)(O)O)[C@@H](O)[C@H]3O)c3ncnc1c23` [TRICIRIBINE PHOSPHATE], for which the Kd (in [1]; in assay [2]; in [3]; on Ephrin type-B receptor 4; in assay [4]; in assay [5]) was > 30 µM (inactive) in each case. For the same molecule, the Kd in assay [6], in assay [7], in assay [8] and in assay [9] was > 30 µM (inactive) each time.

Take `O=C(c1ccc(F)c(F)c1Nc1ccc(I)cc1F)N1CC(O)([C@@H]2CCCCN2)C1` [COBIMETINIB]: the Kd (in [1]; in assay [2]; in assay [3]; on Ephrin type-B receptor 4; in [4]; in assay [5]) was > 30 µM (inactive) throughout. Besides, the Kd in assay [6], in assay [7], in assay [8] and in [9] was > 30 µM (inactive) in each case.

As for `Cc1ccc(S(=O)(=O)Nc2nc3ccccc3nc2Nc2ccc3nsnc3c2)cc1`, the Kd (in assay [1]; in [2]; in assay [3]; on Ephrin type-B receptor 4; in [4]; in [5]) was > 30 µM (inactive) in each case. Besides, the Kd in [6], in assay [7], in assay [8] and in assay [9] was > 30 µM (inactive) each time.

Regarding `CCS(=O)(=O)N1CC(CC#N)(n2cc(-c3ncnc4[nH]ccc34)cn2)C1` [BARICITINIB], the Kd (in [1]; in assay [2]; in assay [3]; on Ephrin type-B receptor 4; in [4]; in assay [5]) was > 30 µM (inactive) throughout. Besides, the Kd in assay [6] is > 30 µM (inactive); in assay [7], > 30 µM (inactive); in [8], 1.07 µM (active); in assay [9], > 30 µM (inactive).

For orientation: pKd means the Kd on a negative log10 scale, so that one unit is a factor of ten. Higher therefore signals a low Kd. Consider `Cc1ccc(-n2nc(C(C)(C)C)cc2NC(=O)NCc2cc(F)ccc2Oc2ccc3c(cnn3CCO)c2)cc1` [PEXMETINIB], for which the Kd was > 30 µM (inactive) in assay [1]; 0.351 µM (active) in assay [2]; > 30 µM (inactive) in [3]; > 30 µM (inactive) in [4]; 1.14 µM (active) in [5]; 0.662 µM (active) in assay [6]. The Kd in assay [7], in assay [8] and in assay [9] was > 30 µM (inactive) throughout. Also, the pKd at Ephrin type-B receptor 4 is 5.28.

As to `CNS(=O)(=O)Nc1nccc(Cc2c(C)c3ccc(Oc4ncccn4)cc3oc2=O)c1F` [AVUTOMETINIB], the Kd (in assay [1]; in [2]; in assay [3]; on Ephrin type-B receptor 4; in [4]; in assay [5]) was > 30 µM (inactive) each time. The Kd in assay [6], in assay [7], in assay [8] and in assay [9] was > 30 µM (inactive) each time.

For `COc1ccc(-c2ccc3c(N4CCOC[C@@H]4C)nc(N4CCOC[C@@H]4C)nc3n2)cc1CO` [AZD-8055], the Kd was 6.9 µM (active) in [1]; > 30 µM (inactive) in assay [2]; > 30 µM (inactive) in assay [3]; > 30 µM (inactive) at Ephrin type-B receptor 4; > 30 µM (inactive) in assay [4]; > 30 µM (inactive) in assay [5]. Besides, the Kd in assay [6], in assay [7], in [8] and in [9] was > 30 µM (inactive) throughout.

These data come from ChEMBL document CHEMBL3991601, “The target landscape of clinical kinase drugs” (Science, 2017).
